Where two headings read alike, the source gives them in different places.
Experiments:
[1] = cited from earlier work
OATP1B1 = target: T1, OATP1B1 (Homo sapiens, UniProt Q9Y6L6); conditions: Wong, 2006, Yamazaki, 2005; cited from earlier work
T1 sequence (Q9Y6L6 1-691): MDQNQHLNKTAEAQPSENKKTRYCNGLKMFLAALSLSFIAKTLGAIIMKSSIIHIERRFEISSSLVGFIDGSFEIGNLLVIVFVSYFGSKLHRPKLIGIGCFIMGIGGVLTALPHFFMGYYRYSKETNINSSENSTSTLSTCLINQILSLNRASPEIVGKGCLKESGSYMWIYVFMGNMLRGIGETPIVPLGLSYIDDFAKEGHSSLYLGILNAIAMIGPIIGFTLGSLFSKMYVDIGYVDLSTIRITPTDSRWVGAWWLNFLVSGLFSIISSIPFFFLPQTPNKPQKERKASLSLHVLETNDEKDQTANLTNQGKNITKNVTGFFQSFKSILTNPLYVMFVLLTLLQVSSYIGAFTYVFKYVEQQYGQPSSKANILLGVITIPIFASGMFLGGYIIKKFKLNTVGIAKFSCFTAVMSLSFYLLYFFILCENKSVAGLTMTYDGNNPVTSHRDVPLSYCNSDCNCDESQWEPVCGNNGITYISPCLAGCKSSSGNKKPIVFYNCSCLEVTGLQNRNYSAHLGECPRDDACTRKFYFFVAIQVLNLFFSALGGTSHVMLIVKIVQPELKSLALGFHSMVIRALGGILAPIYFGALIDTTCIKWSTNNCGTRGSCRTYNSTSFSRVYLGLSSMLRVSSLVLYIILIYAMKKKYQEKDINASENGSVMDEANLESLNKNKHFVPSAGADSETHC

cytochrome P450 = conditions: Wong, 2006, Yamazaki, 2005; cited from earlier work
P-gp = P-gp (Homo sapiens, UniProt P08183); conditions: Wong, 2006, Yamazaki, 2005; cited from earlier work
P-gp, sequence (P08183 whole entry): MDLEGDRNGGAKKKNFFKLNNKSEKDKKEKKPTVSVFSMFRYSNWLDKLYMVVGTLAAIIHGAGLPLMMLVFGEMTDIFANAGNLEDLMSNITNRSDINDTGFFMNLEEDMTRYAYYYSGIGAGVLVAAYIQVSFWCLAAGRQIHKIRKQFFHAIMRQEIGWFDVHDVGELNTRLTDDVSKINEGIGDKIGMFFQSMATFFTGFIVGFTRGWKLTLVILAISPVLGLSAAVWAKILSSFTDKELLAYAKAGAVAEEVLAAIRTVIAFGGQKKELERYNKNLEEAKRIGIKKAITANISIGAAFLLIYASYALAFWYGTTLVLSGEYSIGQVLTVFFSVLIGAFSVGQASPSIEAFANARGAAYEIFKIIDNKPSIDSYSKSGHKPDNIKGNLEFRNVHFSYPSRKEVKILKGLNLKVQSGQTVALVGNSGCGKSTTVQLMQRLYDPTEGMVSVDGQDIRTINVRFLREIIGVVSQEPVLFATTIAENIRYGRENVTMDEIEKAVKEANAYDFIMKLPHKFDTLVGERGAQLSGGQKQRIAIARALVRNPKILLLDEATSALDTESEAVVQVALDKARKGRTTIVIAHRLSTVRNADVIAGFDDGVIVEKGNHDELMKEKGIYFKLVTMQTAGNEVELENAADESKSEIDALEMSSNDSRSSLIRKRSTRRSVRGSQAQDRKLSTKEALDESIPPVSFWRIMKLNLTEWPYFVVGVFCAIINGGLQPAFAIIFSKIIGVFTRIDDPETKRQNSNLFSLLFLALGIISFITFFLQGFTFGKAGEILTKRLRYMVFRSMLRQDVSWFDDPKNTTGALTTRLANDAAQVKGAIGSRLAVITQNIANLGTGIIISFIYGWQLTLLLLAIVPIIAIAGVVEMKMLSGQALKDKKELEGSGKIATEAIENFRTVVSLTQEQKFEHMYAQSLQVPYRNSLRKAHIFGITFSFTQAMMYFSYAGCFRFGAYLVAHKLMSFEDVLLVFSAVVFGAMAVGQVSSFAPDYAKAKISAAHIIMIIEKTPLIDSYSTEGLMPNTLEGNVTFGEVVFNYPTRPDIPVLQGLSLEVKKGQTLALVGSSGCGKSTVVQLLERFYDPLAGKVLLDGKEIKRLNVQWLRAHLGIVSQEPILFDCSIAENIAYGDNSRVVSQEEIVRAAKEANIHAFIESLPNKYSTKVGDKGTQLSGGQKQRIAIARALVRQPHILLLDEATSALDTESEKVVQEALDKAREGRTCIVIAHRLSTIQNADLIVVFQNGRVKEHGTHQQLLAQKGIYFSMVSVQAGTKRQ

[2] = Particle size distribution by laser beam diffraction; type: physicochemical
Method: The determination of the particle size distribution by laser beam diffraction for micronized fenofibrate was carried out using a DPS module in a particle size analyzer.
Determination of particle size distribution by laser beam diffraction was carried out for micronized fenofibrate by placing 0.5 g of the raw material in a sample holder and using a DPS module in the particle size analyzer to obtain an obscuration of 4-7%. The determination is made in duplicate.

Compound	concentrations reported in the literature ([1]; Chou, 2013) [ng/mL]	drug-drug interaction potential by inhibition of OATP1B1 (OATP1B1)	concentrations reported in the literature ([1]; Back, 2018, Moffat, 2011)	metabolism via cytochrome P450 (cytochrome P450)	inhibition of P-gp-mediated transport (P-gp)	particle size distribution (100%) [2]	particle size distribution (d10) [2] [μm]	particle size distribution (d50) [2] [μm]	particle size distribution (d90) [2] [μm]
CC(C)c1c(C(=O)Nc2ccccc2)c(-c2ccccc2)c(-c2ccc(F)cc2)n1CC[C@@H](O)C[C@@H](O)CC(=O)O [atorvastatin]	2.5 to 50.1								
CC(C)(Oc1ccc(C(=O)c2ccc(Cl)cc2)cc1)C(=O)O [fenofibric acid]		do not have a potential to cause a clinically significant drug-drug interaction by inhibition of OATP1B1	3.17-30 μm/mL	are not metabolized via cytochrome P450	do not significantly inhibit P-gp-mediated transport				
CC(C)OC(=O)C(C)(C)Oc1ccc(C(=O)c2ccc(Cl)cc2)cc1 [fenofibrate]		do not have a potential to cause a clinically significant drug-drug interaction by inhibition of OATP1B1		are not metabolized via cytochrome P450	do not significantly inhibit P-gp-mediated transport	less than 30 μm	≤ 0.95	≤ 5.35	≤ 11.28

— US20230355578A1, “PHARMACEUTICAL COMBINATIONS OF STATINS AND FIBRATES FOR THE TREATMENT AND PREVENTION OF […] AND CARDIOVASCULAR DISEASE” (LABORATORIOS SILANES S.A. DE C.V., priority 2020, published 2023)
